Reference: ChEMBL document CHEMBL1150126, “Oxidation products of abietic acid and its methyl ester” (J Nat Prod, 2002)
Values after ≈ are worked out from the molar mass of the structure shown.

tested on: KB; assay: Cytotoxicity against human KB cells; type: functional, cell-based; settings: Homo sapiens, KB; read-out: IC50; call rule not given here

Question: For `COC(=O)[C@]1(C)CCC[C@]2(C)c3ccc(C(C)C)cc3[C@H](O)C[C@@H]12`, which IC50 is on record?
Answer: 5.8 µg/mL (≈ 17.6 µM)

Question: `COC(=O)[C@]1(C)CCC[C@@]2(C)[C@H]1CC=C1C=C(C(C)C)C(=O)C[C@@H]12` was tested. Which IC50 did it give?
Answer: 12.5 µg/mL (≈ 37.8 µM)

Question: For `COC(=O)[C@]1(C)CCC[C@]2(C)c3ccc(C(C)C)cc3C(=O)C[C@@H]12`, which IC50 is on record?
Answer: 4.5 µg/mL (≈ 13.7 µM)

same assay, conditions: kb

Question: Which IC50 does the source give for `CCO[C@@]1(C(C)C)C=C2[C@H](O)C[C@@H]3[C@](C)(CCC[C@@]3(C)C(=O)OC)[C@H]2CC1` here?
Answer: Not Active

Question: For `CC(C)C1=CC2=CC[C@@H]3[C@](C)(CCC[C@@]3(C)C(=O)O)[C@H]2CC1` [ABIETIC ACID], which IC50 is on record?
Answer: Not Active

Question: How did the IC50 turn out when `CC(C)C(=O)CC[C@H]1C(C=O)=CC[C@@H]2[C@]1(C)CCC[C@@]2(C)C(=O)O` was run?
Answer: Not Active

Question: For `COC(=O)[C@]1(C)CCC[C@@]2(C)[C@H]1C[C@@H](O)C1=C[C@@](O)(C(C)C)CC[C@@H]12`, which IC50 is on record?
Answer: Not Active

Question: `COC(=O)[C@]1(C)CCC[C@@]2(C)[C@H]1CC=C1C=C(C(C)C)CC[C@@H]12` [METHYL ABIETATE] was tested. Which IC50 did it give?
Answer: Not Active

Question: For `CC(C)(O)c1ccc2c(c1)[C@H](O)C[C@H]1[C@](C)(C(=O)O)CCC[C@]21C`, which IC50 is on record?
Answer: Not Active
